In patent publication US4990510A, “Substituted indoloquinoxalines” (Leif Lundblad, priority 1986, dated 1991):
Converted amounts (≈) assume the structure as drawn. Where a name gives a salt, the structure may show the parent alone.

Legend:
[1] = Acute toxicity (LD50) in mice; assay type: in vivo; conditions: for LD50: mouse, in vivo
Experimental: (§1) Experiments with mice have also been carried out. LD50 intraperitoneally is of the order 1000 mg/kg and about 100 mg/kg intravenously. […] were inocculated with 5 millions mouse ascites tumor cells intraperitoneally. 80 mg/kg of B219 were given daily for ten days. 2 mice died 22 days after treatment, 8 mice survived the whole test period (3 months). All controls were then dead. In two experiments with ascites lymphoma cells in mice a survival time of 50.9 days was obtained in the first experiment and 45.6 days in the second. The survival time for the controls , was 16.2 and 16.1 days respectively.

[2] = tested on: Herpes simplex type 1 and 2; assay: Herpes simplex virus tissue culture test (human amnion AV3-cells), cytopathogenic effect; assay type: cell-based, Herpes simplex virus type 1 and 2; conditions: for EC50: Human alphaherpesvirus 1, Table 1, read-out: Herpes Simplex tissue culture OL50 (concentration for 50% survival); for Herpes Simplex tissue culture OL50 (concentration for 50% survival): Table 1
Experimental: (§2) The virus strains were obtained from the National Bacteriological Laboratory, Stockholm. Herpes simplex type 1 and 2 were passaged intracerebrally in mice. For mouse experiments male mice 2-3 weeks old were used. Intracerebral infection was carried out by introducing the syringe 3 mm above the eye to a depth of approximately 3 mm. 0.03 ml virus suspension was injected above one eye and the substance above the other. Control groups obtained on one hand injection with physiological saline and on the other hand virus suspension.
Tissue culture experiments took place with human amnion AV3-cells. The cells were grown in glass-tubes (12×100 mm) in Eagles medium containing Earles salt solution and 10% of calf-serum. Tubes with a full-grown homogenous layer of cells were infected with virus (0.15 ml) and the virus was allowed to adsorb to cells for 1 hour at 37° C. The tubes were treated with substance dissolved in medium 24 hours and 0 hour before infection. Medium containing test-substance was changed every second day throughout the experiment. In each test a series of concentrations of the test-substance was investigated simultaneously so that about 50% reduction in cytopatogenic effect could be established (ED50).

HeHrl-cells = assay: Growth/killing of Burkitt lymphoma HeHrl-cells (HeHr); assay type: cell-based; conditions: FIGS. 1 and 2
Experimental: (§3) Burkitt lymphoma cells were obtained from professor Georg Klein, Karolinska Institutet. HeHrl-cells contain Epstein-Barr virus antigen on the surface of the cells while Raji cells contain the same antigen in the nucleus. The cells were grown in RPMI 1640 medium in the presence of 15% of fetal calf-serum, 2mM glutamine, 200 mg/1 penicillin and 200 mg/1 of streptomycine. L 1210 cells (mouse leukemia) were obtained from Dr. Miklos Degre, Rikshospitalet, Oslo. These cells were grown in RPMI 1640 medium with 10% horse serum.

Raji cells = assay: Growth/killing of Burkitt lymphoma Raji-cells; assay type: cell-based; conditions: FIGS. 1 and 3
Experimental: as §3

osteogenic sarcoma cells = assay: Growth inhibition of osteogenic sarcoma cells; assay type: cell-based; conditions: after 6 days test with 1 mg/1
Experimental: (§4) Also osteogenic sarcoma cells and giant tumor cells (strain T4) were inhibited to 90% in their growth after 6 days test with 1 mg/1.

[3] = tested on: giant tumor cells (strain T4); assay: Growth inhibition of giant tumor cells (strain T4); assay type: cell-based; conditions: after 6 days test with 1 mg/1
Experimental: as §4

[4] = tested on: herpes simplex virus type 1; assay: Virus mixed with B196, with or without dialysis, injected intracerebrally into mice (FIG. 4); assay type: in vivo, herpes simplex virus type 1 in mice
Experimental: as §2
In the experiments shown in FIG. 4 various concentrations of B-196 were mixed with herpes simplex virus type 1 and injected intracerebrally into mice immediately at or after dialysis, at 4° C. over night. No survivors were recorded in control groups.

[5] = tested on: herpes simplex virus type 1; assay: Virus inactivation after incubation with B196, infectivity by intracerebral injection in mice (FIG. 5); assay type: in vivo, herpes simplex virus type 1 in mice; conditions: 75 and 150 μg/ml, 4° C.
Experimental: In the experiments shown in FIG. 5 two concentrations of B-196 (75 and 150 μg/ml) were incubated for different times at 4° C. with herpes simplex virus type 1 and the infectivity of the mixtures were determined by intracerebral injection in mice Control virus was incubated at 4° C. for the same period of time. No survivors were registered in these groups.

[6] = tested on: mouse ascites tumor cells; assay: Mouse ascites tumor survival experiment; assay type: in vivo; conditions: 80 mg/kg daily for ten days
Experimental: as §1

ascites lymphoma cells = assay: Ascites lymphoma survival experiments in mice; assay type: in vivo
Experimental: as §1

herpes virus = conditions: literature; cited from earlier work

`Cc1ccc2c(c1)c1nc3ccccc3nc1n2CCN(C)C` [Example 4, 9-methyl-6-(N,N-dimethylaminoethyl)-6H-indolo(2,3-b)quinoxaline] showed an LD50 ([1]; Table 1) of over 200 mg/kg and an EC50 [2] of 1 µg/mL (≈ 3.29 µM).

In the case of `CN(C)CCn1c2ccc(Br)cc2c2nc3ccccc3nc21` [Example B196, 9-bromo-6(N,N-dimethylaminoethyl)-6H-indolo(2,3-b)-quinoxaline . HCl], the “sensitivity / killing of HeHrl-cells” value (HeHrl-cells) is reported as “rapidly killed”, the “sensitivity / killing of Raji-cells” value (Raji cells) is reported as “rapidly killed” and the “inhibition of growth, osteogenic sarcoma cells” value (osteogenic sarcoma cells) is reported as 90%. For the same compound, the “inhibition of growth, giant tumor cells (strain T4)” value [3] was 90%, the survival rate ([4]; virus mixed with B196 before injection, increases from 0) was 100% and the “effect on survival rate after dialysis” value ([4]; virus-substance mixture subjected to dialysis before injection) was “almost equally pronounced”. For the same compound, the “inactivation of HSV1-virus vs. time” value [5] was “virus slowly is inactivated”.

For `Cc1cc2nc3c4cc(Br)ccc4n(CCN(C)C)c3nc2cc1C` [Example B219], the “mice died 22 days after treatment” value ([6]; 5 millions ascites tumor cells intraperitoneally) was 2 mice, the “mice survived the whole test period” value ([6]; 3 months, all controls dead) was 8 mice and the “survival time, first experiment” value (ascites lymphoma cells; first experiment, controls 16.2 days) was 50.9 days. For the same compound, the “survival time, second experiment” value (ascites lymphoma cells; second experiment, controls 16.1 days) was 45.6 days.

For `O=C(O)CP(=O)(O)O` [phosphonoacetic acid], the “activity against herpes virus” value (herpes virus) is listed as “active against herpes virus”.

In the case of `Cc1ccc2c(c1)c1nc3ccccc3nc1n2CCN(C)C` [Example 8], the LD50 mouse ([1]; Table 1) is reported as over 200 mg/kg and the “Herpes Simplex tissue culture OL50 (concentration for 50% survival)” value [2] is reported as 1 µg/mL.

For `O=C(O)P(=O)(O)O` [phosphonoformic acid], the “activity against herpes virus” value (herpes virus) is listed as “active against herpes virus”.

`Cc1cc2nc3c4cc(Br)ccc4n(CCN(C)C)c3nc2cc1C` [Example 6, 2,3-dimethyl-9-bromo-6-(N,N-dimethylaminoethyl)-6H-indolo-(2,3-b)quinoxalin] gave an LD50 ([1]; Table 1) of over 250 mg/kg and an EC50 [2] of under 0.5 µg/mL.

In the case of `Cc1ccc2c(c1)c1nc3ccccc3nc1n2CCN(C)C` [Example 10, 9-methyl-6-(N,N-dimethylaminoethyl)-6H-indolo(2,3-b)-quinoxaline-ICl], the LD50 mouse ([1]; Table 1) is reported as 220 mg/kg and the “Herpes Simplex tissue culture OL50 (concentration for 50% survival)” value [2] is reported as 0.5 µg/mL.

For `CN(C)CCn1c2ccc(Cl)cc2c2nc3ccccc3nc21.Cl` [Example 5, 9-chloro-6-(N,N-dimethylaminoethyl)-6H-indolo(2,3-b)-quinoxaline-HCl], the LD50 mouse ([1]; Table 1, listed as 9) was over 250 mg/kg, the LD50 ([1]; Table 1) was 180 mg/kg and the EC50 [2] was 1 µg/mL.
